Source: publication PMC11125646 (Viruses, 2024)
Like-named read-outs stand apart in the source and are kept apart here.

Tests used:
SARS-CoV-2 = format: cell-based
hCoV OC43 = assay: Inhibition of OC43-induced cytopathogenicity in Vero-76 cells (MTT); format: cell-based
in vitro = conditions: African green monkey (Cercopithecus aethiops)
[1] = Cytotoxicity in SK-MES-1 cells (MTT); format: cell-based; conditions: human
hCoV-229E [2] = assay: microbe, parasite or virus in culture; format: cell-based; conditions: for EC50: Human coronavirus 229E
[3] = Cytotoxicity in Caco-2 cells (MTT); format: cell-based, human; conditions: human, MTT; for CC50 at 24 h: Caco-2, 24 h; for CC50 at 72 h: Caco-2, 72 h
Caco-2 cells = assay: Cytotoxicity in Caco-2 cells (MTT); format: cell-based, human
EV-A71 = assay: Inhibition of EVA71-induced cytopathogenicity (MTT); format: cell-based; conditions: Enterovirus A, 50% protection from EVA71-induced cytopathogenicity
OC43 [4] = assay: OC43 yield reduction assay in Vero-76 cells; format: cell-based, hCoV-OC43
OC43 [5] = assay: OC43 virucidal activity assay; format: cell-based, hCoV-OC43; conditions: 0 °C and 37 °C, before cell infection
OC43 [6] = assay: Cell pretreatment assay (OC43, Vero-76); format: cell-based, hCoV-OC43; conditions: 2 h pre-treatment, 50, 20, 4, 0.8 μM, viability after six days
OC43 [7] = assay: Adsorption assay (OC43, Vero-76); conditions: virus and cells incubated at 4 °C in presence of compound
[8] = Cytotoxicity in Vero-76 cells (MTT); conditions: African green monkey (Cercopithecus aethiops); for CC50: Vero-76 cells
hCoV-229E [9] = system: hCoV-229E; set-up: method as in earlier work; conditions: Huh-7 cells; ref [41]; read-out: EC50, replication of HCoV-229E in Huh-7 cells; cited from earlier work
Mpro of SARS-CoV-2 = system: Mpro of SARS-CoV-2; set-up: method as in earlier work; conditions: ref [41]; cited from earlier work
[10] = Betacoronavirus 1, 50% protection of Vero-76 cells from OC43-induced cytopathogenicity, MTT, read-out: OC43 EC50
[11] = 50% protection of SK-MES-1 cells from 229E-induced cytopathogenicity, MTT, read-out: 229E EC50
[12] = Betacoronavirus 1, OC43, Vero 76, cinnamic acids, read-out: OC43 EC50 (Table S1)
[13] = SK-MES-1, cinnamic acids, read-out: 229E EC50 (Table S1)

In the case of COc1ccc(/C=C/C(=O)Oc2cc(O)c3c(=O)c(O)c(-c4ccc(O)c(O)c4)oc3c2)cc1OC [Compound 1], the “activity against SARS-CoV-2 (words)” value (SARS-CoV-2) is reported as “no activity”, the “activity against OC43 (words)” value (hCoV OC43) is reported as “no activity” and the EC50 (hCoV OC43; [10]) is reported as greater than 54.7 µM. It also gave a CC50 at 120 h (in vitro) of 54.7 µM.
Work on COc1cc(/C=C/C(=O)Oc2cc(O)c3c(=O)c(O)c(-c4ccc(O)c(O)c4)oc3c2)ccc1O [Compound 2] yielded an EC50 (hCoV OC43; [10]) greater than 11.4 µM and a CC50 at 120 h (in vitro) of 11.4 µM.
For O=C(/C=C/c1ccc(O)cc1)Oc1cc(O)c2c(=O)c(O)c(-c3ccc(O)c(O)c3)oc2c1 [Compound 3], the “activity against OC43 (words)” value (hCoV OC43) was “no evidence of activity”, the EC50 (hCoV OC43; [10]) was greater than 60 µM and the CC50 at 120 h (in vitro) was 60 µM.
For O=C(/C=C/c1ccccc1O)Oc1cc(O)c2c(=O)c(O)c(-c3ccc(O)c(O)c3)oc2c1 [Compound 4], the EC50 (hCoV OC43; [10]) was greater than 78 µM and the CC50 at 120 h (in vitro) was 78 µM.
O=C(/C=C/c1cccc(O)c1)Oc1cc(O)c2c(=O)c(O)c(-c3ccc(O)c(O)c3)oc2c1 [Compound 5] gave an EC50 (hCoV OC43; [10]) greater than 75 µM and a CC50 at 120 h (in vitro) of 75 µM.
With O=C(/C=C/c1ccc2c(c1)OCO2)Oc1cc(O)c2c(=O)c(O)c(-c3ccc(O)c(O)c3)oc2c1 [Compound 6] the EC50 (hCoV OC43; [10]) was 2.4 ± 0.56 µM, the CC50 at 48 h [1] was 33 µM and the EC50 (hCoV-229E [2]; [11]) was greater than 33 µM. For the same compound, the CC50 at 120 h (in vitro) was 30 µM.
With COc1cc(/C=C/C(=O)Oc2cc(O)c3c(=O)c(O)c(-c4ccc(O)c(O)c4)oc3c2)cc(OC)c1O [Compound 7] the “activity against SARS-CoV-2 (words)” value (SARS-CoV-2) was “showed activity”, the selectivity index (hCoV OC43) was 15 and the EC50 (hCoV OC43; [10]) was 6.5 ± 0.7 µM. The CC50 at 48 h [1] was greater than 100 µM, the EC50 (hCoV-229E [2]; [11]) was greater than 100 µM and the CC50 at 24 h [3] was greater than 100 µM. The CC50 at 72 h [3] was 70 µM, the “cytotoxicity against Caco-2 cells” value (Caco-2 cells; 24 h) was “No relevant cytotoxicity” and the “cytotoxicity against Caco-2 cells” value (Caco-2 cells; 72 h) was “a slight increase”. For the same compound, the EC50 (EV-A71) was greater than 100 µM, the “reduction in the OC43 titer” value (OC43 [4]; 4 µM, Vero-76, m.o.i. 0.1) was 2 logs and the “reduction in the viral titer” value (OC43 [4]; 50, 20, 4 and 0.8 µM, Vero-76) was “significant dose-dependent reduction”. The “virus titers of treated vs untreated samples (virucidal activity)” value (OC43 [5]) was “did not significantly differ”, the “protection of pre-treated Vero-76 monolayers from OC43 infection” value (OC43 [6]) was “failed to inhibit OC43 infection” and the CC50 at 24 h (in vitro) was greater than 100 µM. The CC50 at 72 h (in vitro) was greater than 100 µM, the CC50 at 120 h (in vitro) was 100 µM and the “block of OC43 viral binding (adsorption)” value (OC43 [7]) was “efficiently able to block OC43 viral binding”.
In the case of O=C(/C=C/c1ccc(O)c(O)c1)Oc1cc(O)c2c(=O)c(O)c(-c3ccc(O)c(O)c3)oc2c1 [Compound 8], the “activity against SARS-CoV-2 (words)” value (SARS-CoV-2) is reported as “showed activity”, the EC50 (hCoV OC43; [10]) is reported as 15 µM and the CC50 at 48 h [1] is reported as greater than 100 µM. The EC50 (hCoV-229E [2]; [11]) was greater than 100 µM and the CC50 at 120 h (in vitro) was 70 µM.
In the case of COc1ccc(/C=C/C(=O)O)cc1OC [Compound A1], the EC50 (hCoV OC43; [12]) is reported as greater than 100 µM and the CC50 (in vitro) is reported as greater than 100 µM.
With COc1cc(/C=C/C(=O)O)ccc1O [Compound A2] the EC50 (hCoV OC43; [12]) was greater than 100 µM and the CC50 (in vitro) was greater than 100 µM.
Work on O=C(O)/C=C/c1ccc(O)cc1 [Compound A3] yielded an EC50 (hCoV OC43; [12]) greater than 100 µM and a CC50 [8] greater than 100 µM.
In the case of O=C(O)/C=C/c1ccccc1O [Compound A4], the EC50 (hCoV OC43; [12]) is reported as greater than 100 µM and the CC50 (in vitro) is reported as greater than 100 µM.
In the case of O=C(O)/C=C/c1cccc(O)c1 [Compound A5], the EC50 (hCoV OC43; [12]) is reported as greater than 100 µM and the CC50 (in vitro) is reported as greater than 100 µM.
In the case of COc1cc(/C=C/C(=O)O)cc(OC)c1O [Compound A7, sinapic acid], the “activity against SARS-CoV-2 (words)” value (SARS-CoV-2) is reported as “no anti-beta coronavirus activity”, the “activity against OC43 (words)” value (hCoV OC43) is reported as “no anti-beta coronavirus activity” and the EC50 (hCoV OC43; [12]) is reported as greater than 44 µM. The CC50 ([1]; cinnamic acids, read-out: SK-MES-1 CC50 (Table S1)) was greater than 100 µM, the EC50 (hCoV-229E [2]; [13]) was greater than 100 µM and the CC50 [8] was 44 µM.
Compound O=C(O)/C=C/c1ccc(O)c(O)c1 [Compound A8] has an EC50 (hCoV OC43; [12]) greater than 100 µM, a CC50 [1] greater than 100 µM and an EC50 (hCoV-229E [2]; [13]) greater than 100 µM. The CC50 (in vitro) was greater than 100 µM.
For CCN(CCO)CCCC(C)Nc1ccnc2cc(Cl)ccc12 (stereo not drawn) [Hydroxychloroquine, reference compound], the EC50 (hCoV OC43; [10]) was 1.9 ± 0.8 µM and the CC50 at 120 h (in vitro) was 60 µM.
In the case of O=c1c(O)c(-c2ccc(O)c(O)c2)oc2cc(O)cc(O)c12 [Quercetin, reference compound], the “activity against SARS-CoV-2 (words)” value (SARS-CoV-2) is reported as “no activity”, the “activity against SARS-CoV-2 (words)” value (SARS-CoV-2; listed as quercetin) is reported as “no anti-beta coronavirus activity” and the “activity against OC43 (words)” value (hCoV OC43) is reported as “no activity”. For the same compound, the EC50 (hCoV OC43; [10]) was greater than 20 µM, the “activity against OC43 (words)” value (hCoV OC43; listed as quercetin) was “no anti-beta coronavirus activity” and the CC50 at 48 h ([1]; mock-infected SK-MES-1 cells, 48 h post-treatment, MTT, read-out: SK-MES-1 CC50) was greater than 100 µM. It also gave an EC50 (hCoV-229E [2]; [11]) of 51 µM, a CC50 at 24 h [3] of 88.7 µM and a CC50 at 72 h [3] of 61 µM. The EC50 (EV-A71) was greater than 100 µM, the “cytotoxicity against Vero-76 cells” value (Vero-76 cells) was “No cytotoxicity was detected” and the EC50 (hCoV-229E [9]) was 4.88 µM. The IC50 (Mpro of SARS-CoV-2) was 6.79 µM, the CC50 at 24 h [8] was greater than 100 µM and the CC50 at 72 h [8] was 100 µM. For the same compound, the CC50 at 120 h [8] was 20 µM.
For CCC(CC)COC(=O)[C@H](C)N[P@](=O)(OC[C@H]1O[C@@](C#N)(c2ccc3c(N)ncnn23)[C@H](O)[C@@H]1O)Oc1ccccc1 [Remdesivir, reference compound], the CC50 at 48 h [1] was greater than 100 µM, the EC50 (hCoV-229E [2]; [11]) was 5 ± 1 µM and the CC50 at 120 h (in vitro) was greater than 100 µM.
CCOC(=O)/C=C/[C@H](C[C@@H]1CCNC1=O)NC(=O)[C@@H](CC(=O)[C@@H](NC(=O)c1cc(C)on1)C(C)C)Cc1ccc(F)cc1 [Rupintrivir, reference compound] showed an EC50 (EV-A71) of 0.07 µM and a CC50 (in vitro) greater than 100 µM.
In the case of COc1cc(/C=C/C(=O)O)ccc1O [ferulic acid], the “activity against SARS-CoV-2 (words)” value (SARS-CoV-2) is reported as “No inhibitory effect”, the “activity against OC43 (words)” value (hCoV OC43) is reported as “No inhibitory effect” and the “activity against 229E” value (hCoV-229E [2]) is reported as “No inhibitory effect”.
With Dextran sulphate [reference compound] the “protection of pre-treated Vero-76 monolayers from OC43 infection” value (OC43 [6]) was “failed to inhibit OC43 infection”.
